In data set [1] the test system is human patient. The data set is described as follows: Side effects noted in patients under daily oral treatment (case examples). The conditions noted are these: Example 3: 75 mg imipramine pamoate daily without stool softener. From the text:
(§1) The patient takes TYLOX, oxycontin, neurotin, aspirin, and anti-coagulants.

In data set [2] the test system is human having a gastrointestinal disorder that includes fecal incontinence. The data set is described as follows: Treatment of ambulatory patients having fecal incontinence with daily oral medicine (case examples). The data set is classed as in vivo. The conditions noted are these: Example 3: person, sprain lumbar spine, 75 mg imipramine pamoate daily without stool softener, after several days.
Excerpt: as §1

Structures are written as SMILES.

The values below come from US20070142367A1, “METHOD AND MEDICINE FOR TREATING GASTROINTESTINAL DISORDER INCLUDING FECAL INCONTINENCE” (priority 2003, published 2007).

Turning to `CN(C)CCCN1c2ccccc2CCc2ccccc21.CN(C)CCCN1c2ccccc2CCc2ccccc21.O=C(O)c1cc2ccccc2c(Cc2c(O)c(C(=O)O)cc3ccccc23)c1O` [imipramine pamoate, 5-[3-(dimethylamino)propyl]-10,11-dihydro-5H-dibenzazepine 4,4-methlyenebis-(3-hydroxy-2-napthoate)], the side effects result in data set [1] is “develops constipation”. For the same molecule, the “bladder and bowel functions as noted by patient” value in data set [2] is “full control of bladder and bowel functions”.
